Source: patent US20220127297A1, “Novel Antibacterial 3"-Derivatives Of 4,6-Disubstituted 2,5-Dideoxystreptamine Aminoglycoside Antibiotics” (AGILeBiotics B.V., priority 2018, published 2022)
In brackets after ≈: the same amount, converted by molar mass.

System: E. coli (APH(3′)Ia)
Assay: MIC 50, broth micro-dilution, E. coli expressing APH(3′)Ia
Type: cell-based, Escherichia coli
Details: Escherichia coli, ATCC25922, ATCC25922 harboring plasmid encoding APH(3′)Ia
Procedure, shortened: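 Two-fold dilution series of compound (64 μM top, final) in MH2 broth, inoculated with plasmid-transformed E. coli ATCC 25922 at OD 0.1 and incubated 18 h, 37° C. Half-maximal growth by OD600 defined MIC50.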

N=C(N)NC1[C@@H](O)C(OC2[C@@H](F)[C@H](O[C@H]3OC(CNCCO)[C@@H](O)CC3N)C(N)C[C@H]2NC(=O)[C@@H](O)CCN)O[C@H](CO)[C@H]1O (stereo partly shown) [ABX5045, 6N-2-hydroxy-ethyl-Tobra-AHB-F-Gua]
MIC50: 1 µM (≈ 0.657 µg/mL)

N=C(NCC1CCCO1)NC1[C@@H](O)C(OC2[C@@H](F)[C@H](O[C@H]3OC(CN)[C@@H](O)CC3N)C(N)C[C@H]2NC(=O)[C@@H](O)CCN)O[C@H](CO)[C@H]1O (stereo partly shown) [ABX5046, Tobra-AHB-F-Gua tetrahydrofuran-2-yl methyl]
MIC50: 1 µM (≈ 0.697 µg/mL)

C[C@@H](N)CCNC(=N)NC1[C@@H](O)C(OC2[C@@H](F)[C@H](O[C@H]3OC(CN)[C@@H](O)CC3N)C(N)C[C@H]2NC(=O)[C@@H](O)CCN)O[C@H](CO)[C@H]1O (stereo partly drawn) [ABX5047, Tobra-AHB-F-Gua (R) 3-amino-butyl]
MIC50: 0.5 µM (≈ 0.342 µg/mL)

N=C(NCc1ccncc1)NC1[C@@H](O)C(OC2[C@@H](F)[C@H](O[C@H]3OC(CN)[C@@H](O)CC3N)C(N)C[C@H]2NC(=O)[C@@H](O)CCN)O[C@H](CO)[C@H]1O (stereo partly shown) [ABX5048, Tobra-AHB-F-Gua pyridin-4-yl methyl]
MIC50: 1 µM (≈ 0.704 µg/mL)

N=C(NCc1cnc[nH]1)NC1[C@@H](O)C(OC2[C@@H](F)[C@H](O[C@H]3OC(CN)[C@@H](O)CC3N)C(N)C[C@H]2NC(=O)[C@@H](O)CCN)O[C@H](CO)[C@H]1O (stereo partly shown) [ABX5050, Tobra-AHB-F-Gua imidazol-5-yl methyl]
MIC50: 2 µM (≈ 1.39 µg/mL)

N=C(NCC1CCOC1)NC1[C@@H](O)C(OC2[C@@H](F)[C@H](O[C@H]3OC(CN)[C@@H](O)CC3N)C(N)C[C@H]2NC(=O)[C@@H](O)CCN)O[C@H](CO)[C@H]1O (stereo partly shown) [ABX5051, Tobra-AHB-F-Gua tetrahydrofuran-3-yl methyl]
MIC50: 1 µM (≈ 0.697 µg/mL)

NCC[C@H](O)C(=O)N[C@@H]1C[C@H](N)[C@@H](O[C@H]2O[C@H](CN)[C@@H](O)[C@H](O)[C@H]2O)[C@H](O)[C@H]1O[C@H]1O[C@H](CO)[C@@H](O)[C@H](N)[C@H]1O [Amikacin, amikacin, reference compound]
MIC50: 8 µM (≈ 4.68 µg/mL)
